In the supplement of paper PMC8253809:

Assays:
DIPGX29 [1] = H3.3 K27M diffuse intrinsic pontine glioma line; assay: EC50 (inflection of fitted growth-inhibition curve) (log10 M)
Method in brief: (§1)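 Treatment used a pin tool and a 10-point threefold dilution series, mean top concentration 35 μM, run in triplicate on patient-derived pHGG/DIPG cell lines and astrocyte controls in 1% Geltrex-coated 384-well plates. Plates were kept at 37 °C, 5% CO2 for 7 days (iAstro: 3 days). Log2-transformed CellTiter-Glo luminescence was scaled per plate to % activity between negative (solvent) and positive control wells and pooled before fitting. EC50 and maximal response (yFin) came from the three- or four-parameter log-logistic fit chosen by lowest AICc.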

DIPGX7 [2] = H3.3 K27M diffuse intrinsic pontine glioma line; assay: as above
Method in brief: as §1

DIPGX9 [3] = diffuse intrinsic pontine glioma line; assay: as above
Method in brief: as §1

HABS [4] = astrocyte control; assay: as above
Method in brief: as §1

HGGX2 [5] = paediatric high-grade glioma line; assay: as above
Method in brief: as §1

HGGX39 [6] = paediatric high-grade glioma line; assay: as above
Method in brief: as §1

HGGX42 [7] = H3.3 G34R paediatric high-grade glioma line; assay: as above
Method in brief: as §1

HGGX6 [8] = H3.3 G34R paediatric high-grade glioma line; assay: as above
Method in brief: as §1

SUDIPGIV [9] = diffuse intrinsic pontine glioma line; assay: as above
Method in brief: as §1

SUDIPGVI [10] = diffuse intrinsic pontine glioma line; assay: as above
Method in brief: as §1

SUDIPGXIII [11] = diffuse intrinsic pontine glioma line; assay: as above
Method in brief: as §1

SUDIPGXIX [12] = diffuse intrinsic pontine glioma line; assay: as above
Method in brief: as §1

SUDIPGXVII [13] = diffuse intrinsic pontine glioma line; assay: as above
Method in brief: as §1

SUDIPGXXI [14] = diffuse intrinsic pontine glioma line; assay: as above
Method in brief: as §1

iAstro [15] = astrocyte control; assay: as above
Method in brief: as §1

DIPGX29 [16] = assay: area under dose-response curve of % growth inhibition (log2 RLU vs DMSO / staurosporine), 1e-11 to 1e-4 M (% x log10 M); higher = more growth inhibition
Method in brief: (§2)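 Patient-derived pHGG/DIPG cell lines and astrocytes were plated in 384-well plates coated with 1% Geltrex and treated in triplicate with a 10-point threefold dilution series whose mean top concentration was 35 μM, for 7 days (3 days for iAstro) at 37 °C and 5% CO2. CellTiter-Glo luminescence was log2-transformed and scaled on each plate to % activity between solvent and positive controls. Area under the curve came from the trapezoid rule applied to a fitted log-logistic curve, or to a smoothing spline where the sigmoid fit failed.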

DIPGX37 = H3.3 K27M diffuse intrinsic pontine glioma line; assay: as above
Method in brief: as §2

DIPGX7 [17] = assay: as above
Method in brief: as §2

DIPGX9 [18] = assay: as above
Method in brief: as §2

HABS [19] = assay: as above
Method in brief: as §2

HGGX2 [20] = assay: as above
Method in brief: as §2

HGGX39 [21] = assay: as above
Method in brief: as §2

HGGX42 [22] = assay: as above
Method in brief: as §2

HGGX6 [23] = assay: as above
Method in brief: as §2

SUDIPGIV [24] = assay: as above
Method in brief: as §2

SUDIPGVI [25] = assay: as above
Method in brief: as §2

SUDIPGXIII [26] = assay: as above
Method in brief: as §2

SUDIPGXIX [27] = assay: as above
Method in brief: as §2

SUDIPGXVII [28] = assay: as above
Method in brief: as §2

SUDIPGXXI [29] = assay: as above
Method in brief: as §2

iAstro [30] = assay: as above
Method in brief: as §2

Row | Structure (SMILES) | EC50 (log10 M) (DIPGX29 [1]) | EC50 (log10 M) (DIPGX7 [2]) | EC50 (log10 M) (DIPGX9 [3]) | EC50 (log10 M) (HABS [4]) | EC50 (log10 M) (HGGX2 [5]) | EC50 (log10 M) (HGGX39 [6]) | EC50 (log10 M) (HGGX42 [7]) | EC50 (log10 M) (HGGX6 [8]) | EC50 (log10 M) (SUDIPGIV [9]) | EC50 (log10 M) (SUDIPGVI [10]) | EC50 (log10 M) (SUDIPGXIII [11]) | EC50 (log10 M) (SUDIPGXIX [12]) | EC50 (log10 M) (SUDIPGXVII [13]) | EC50 (log10 M) (SUDIPGXXI [14]) | EC50 (log10 M) (iAstro [15]) | area under dose-response curve (DIPGX29 [16]) | area under dose-response curve (DIPGX37) | area under dose-response curve (DIPGX7 [17]) | area under dose-response curve (DIPGX9 [18]) | area under dose-response curve (HABS [19]) | area under dose-response curve (HGGX2 [20]) | area under dose-response curve (HGGX39 [21]) | area under dose-response curve (HGGX42 [22]) | area under dose-response curve (HGGX6 [23]) | area under dose-response curve (SUDIPGIV [24]) | area under dose-response curve (SUDIPGVI [25]) | area under dose-response curve (SUDIPGXIII [26]) | area under dose-response curve (SUDIPGXIX [27]) | area under dose-response curve (SUDIPGXVII [28]) | area under dose-response curve (SUDIPGXXI [29]) | area under dose-response curve (iAstro [30])
1 | CC(=O)c1cc([N+](=O)[O-])c(Sc2ccc(F)cc2F)s1 | -4.83 | -4.76 | -4.77 | -4.7 | -4.59 | -4.79 | -4.68 | -4.65 | -4.71 | -4.76 | -4.72 | -4.78 | -4.75 | -4.78 | -4.85 | 104 | 88.6 | 94.3 | 92.8 | 26.4 | 78.5 | 19.5 | 84 | 67.9 | 91.3 | 71.4 | 74.4 | 91.8 | 55.7 | 87.4 | 75.5
2 | CC(C)c1cc(C(=O)N2Cc3ccc(CN4CCN(C)CC4)cc3C2)c(O)cc1O | -5.68 | -5.07 | -6.96 | -6.06 | -6.72 | -6.08 | -5.89 | -6.73 | -6.68 | -5.95 | -6.14 | -6.98 | -6.44 | -6.4 | -7.01 | 189 | 264 | 125 | 281 | 215 | 145 | 218 | 131 | 92.3 | 152 | 88.8 | 111 | 230 | 164 | 256 | 88
3 | O=C(c1ccccc1)c1ccc2nc(NC(=O)c3csc(C4CCN(c5ncnc6ccsc56)CC4)n3)[nH]c2c1 | -5.26 | -5.45 | -5.03 | -5.18 | -5.06 | -5.87 | -5.14 | -5.19 | -5.86 | -5.46 | -5.72 | -4.95 | -5.91 | -5.2 | -5.2 | 97.4 | 89.1 | 135 | 62.6 | 42.1 | 83.7 | 55.4 | 72.8 | 55.8 | 51.4 | 67 | 114 | 118 | 68.3 | 147 | 88.4
4 | CCN1CCN(Cc2ccc(Nc3ncc(F)c(-c4cc(F)c5nc(C)n(C(C)C)c5c4)n3)nc2)CC1 [ABEMACICLIB] | -6.78 | -6.11 | -6.86 | – | -6.84 | -6.29 | -6.74 | -5.83 | -6.04 | -6.09 | -6.07 | -6.26 | -6.01 | -6.6 | -6.74 | 107 | 255 | 233 | 124 | 93.8 | 120 | 193 | 83.9 | 127 | 156 | 102 | 109 | 248 | 123 | 252 | 161
5 | COCC1(CO)C(=O)C2CCN1CC2 (stereo not given) [APR-246] | -4.85 | -4.79 | -4.82 | – | -4.71 | – | -4.72 | -4.81 | -4.81 | -4.72 | -4.77 | -4.78 | -4.81 | -5.41 | -4.91 | 90.6 | 87.7 | 79.7 | 94.2 | 8.03 | 69.5 | 13 | 72 | 73.1 | 85.3 | 72.7 | 74.7 | 74.8 | 87.2 | 177 | 82.7
6 | CN1[C@@H]2CC[C@H]1C[C@@H](OC(=O)c1cc(Cl)cc(Cl)c1)C2 [BEMESETRON] | -5.09 | -5.23 | -4.9 | -4.73 | -4.99 | -5.05 | -5.38 | -4.86 | -4.99 | – | – | -4.85 | -4.9 | -5.63 | -5.08 | 101 | 137 | 112 | 58.7 | 14.8 | 64 | 85.8 | 119 | 73.6 | 93.7 | 15.4 | 8.98 | 65.3 | 39.9 | 166 | 35.7
7 | CC(C)C[C@H](NC(=O)[C@H](CCc1ccccc1)NC(=O)CN1CCOCC1)C(=O)N[C@@H](Cc1ccccc1)C(=O)N[C@@H](CC(C)C)C(=O)[C@@]1(C)CO1 [CARFILZOMIB] | -5.73 | -7.29 | -7 | -6.6 | -7.54 | -6.2 | -6.77 | -6.37 | -7.24 | -6.71 | -5.36 | -6.53 | -6.36 | – | -8.68 | 171 | 266 | 303 | 343 | 280 | 344 | 239 | 213 | 217 | 320 | 259 | 148 | 294 | 249 | 649 | 379
8 | Cc1noc2c1-c1ccccc1C(c1ccc(Cl)cc1)=N[C@H]2CC(N)=O [CPI-0610] | -5.05 | -4.88 | -5.71 | -5.3 | -5.42 | -4.96 | -5.3 | -5.43 | -5.51 | -5.11 | – | -5.17 | -5.39 | -6.13 | -5.98 | 99.5 | 81.3 | 105 | 194 | 97.5 | 98.6 | 110 | 110 | 59.4 | 114 | 121 | 13.5 | 156 | 88.9 | 251 | 67
9 | CCCc1cc(C)[nH]c(=O)c1CNC(=O)c1cc(-c2ccnc(N3CCN(C)CC3)c2)cc2c1cnn2C(C)C [GSK343] | -4.6 | -4.63 | -4.74 | -4.81 | -4.78 | -4.59 | -4.7 | -4.6 | -4.69 | -4.59 | -4.57 | -4.69 | – | -4.81 | -4.88 | 78.7 | 99.1 | 71.6 | 90.7 | 56.1 | 88.2 | 12.1 | 98.2 | 66.3 | 51.3 | 66.2 | 49.9 | 122 | 12.3 | 102 | 58.3
10 | C=CCn1c(=O)c2cnc(Nc3ccc(N4CCN(C)CC4)cc3)nc2n1-c1cccc(C(C)(C)O)n1 [MK-1775] | -6.91 | -5.75 | -5.33 | -5.41 | -6.67 | -5.05 | -5.45 | -5.72 | -5.92 | – | – | -6.03 | -5.54 | -6.07 | -6.04 | 114 | 48.9 | 58.4 | 60 | 35.1 | 83 | 46.4 | 53.5 | 37.6 | 96 | 27.9 | 15 | 73.8 | 39.4 | 190 | 71.1
11 | COc1ncc(-c2ccc3nccc(-c4ccnnc4)c3c2)cc1NS(=O)(=O)c1ccc(F)cc1F [OMIPALISIB] | -5.88 | – | -7.52 | -6.58 | -6 | -5.79 | -6.22 | -4.77 | -6.11 | -6.23 | -5.65 | -7 | -6.19 | -7.11 | -5.44 | 219 | 290 | 248 | 366 | 262 | 263 | 224 | 237 | 193 | 245 | 257 | 225 | 326 | 251 | 366 | 64
12 | C=CCNC1=C2C[C@@H](C)C[C@H](OC)[C@H](O)[C@@H](C)/C=C(\C)[C@H](OC(N)=O)[C@@H](OC)/C=C\C=C(/C)C(=O)NC(=CC1=O)C2=O [TANESPIMYCIN] | -5.85 | – | -6.85 | -5.41 | -4.97 | -6.48 | -6.01 | -5.84 | -5.88 | -5.19 | -4.95 | -6.32 | -4.99 | -5.76 | -5.41 | 132 | 312 | 89.8 | 309 | 161 | 83 | 242 | 103 | 59.6 | 138 | 42.2 | 80.1 | 214 | 89.8 | 223 | 50.9
